Data published in patent US20240025862A1, “SUBSTITUTED N-PHENYLURACILS AND SALTS THEREOF, AND USE THEREOF AS HERBICIDAL ACTIVE SUBSTANCES” (Bayer Aktiengesellschaft, priority 2020, published 2024).

Columns and labels:
Format in all cases: in vivo
[1] = test system: Echinochloa crus-galli (ECHCG); assay: Post-emergence herbicidal action, greenhouse pot test (also comparative test C); conditions: for Post-emergence action at 1.25 g/ha against ECHCG in %: rated visually after about 3 weeks vs untreated controls, 100% = plants have died
Method in brief: (§1)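 Visual rating against untreated controls, about 3 weeks after spraying, from 0% (like control) to 100% (plants dead). Weeds were treated at the one-leaf stage, 2–3 weeks after sowing in sandy loam, with aqueous WP/EC spray containing 0.5% additive at 600 l/ha. Doses were ≤20 g/ha, or ≤5 g/ha for comparative test C.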

Setaria viridis (SETVI) = assay: as above
Method in brief: as §1

[2] = test system: Matricaria inodora (MATIN); assay: as above
Method in brief: as §1

[3] = test system: Alopecurus myosuroides (ALOMY); assay: as above; conditions: rated visually after about 3 weeks vs untreated controls, 100% = plants have died
Method in brief: as §1

Viola tricolor (VIOTR) = assay: Post-emergence herbicidal action, greenhouse pot test
Method in brief: (§2)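 Activity was scored by eye about 3 weeks after treatment against untreated plants, where 100% means dead plants and 0% means no difference. Plants at the one-leaf stage received a foliar spray of WP or EC formulations in water plus 0.5% additive (600 l/ha, up to 20 g/ha). Plants were grown in sandy loam pots in a greenhouse for 2–3 weeks before spraying.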

Lolium rigidum (LOLRI) = assay: as above; conditions: dosage 20 g/ha
Method in brief: as §2

Avena fatua (AVEFA) = assay: as above; conditions: rated visually after about 3 weeks vs untreated controls, 100% = plants have died
Method in brief: as §2

[4] = test system: Polygonum convolvulus (POLCO); assay: as above
Method in brief: as §2

[5] = test system: Abutilon theophrasti (ABUTH); assay: as above; conditions: rated visually after about 3 weeks vs untreated controls, 100% = plants have died
Method in brief: as §2

[6] = test system: Amaranthus retroflexus (AMARE); assay: as above; conditions: rated visually after about 3 weeks vs untreated controls, 100% = plants have died
Method in brief: as §2

Veronica persica (VERPE) = assay: as above
Method in brief: as §2

[7] = test system: Pharbitis purpurea (PHBPU); assay: as above
Method in brief: as §2

Oryza sativa (ORYSA) = assay: Post-emergence crop plant compatibility, greenhouse pot test (also comparative test C); conditions: vs untreated controls
Method in brief: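 Visual damage versus untreated plants (0% = like control, 100% = plants died) was scored about 3 weeks after a post-emergence spray in greenhouse pots. Treatment: one-leaf stage, WP or EC in water at 600 l/ha with 0.5% additive; a/b/c mark different dosages on the same crop.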

[8] = test system: Triticum aestivum (TRZAS); assay: Post-emergence crop plant compatibility, greenhouse pot test; conditions: vs untreated controls
Method in brief: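 Greenhouse pot test; post-emergence foliar spray at one-leaf stage, WP or EC in water + 0.5% additive, 600 l/ha. Visual rating after ~3 wk, % relative to untreated (0–100%).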

## Cn1c(C(F)(F)F)cc(=O)n(-c2cc(Oc3ccccc3OCC(=O)OCCOC(F)(F)F)c(Cl)cc2F)c1=O [I.7-41]
[1]
  Post-emergence action at 1.25 g/ha against ECHCG in %: 90%
[1]; dosage 5 g/ha
  Post-emergence action against ECHCG in %: 100%
[1]; dosage 20 g/ha
  Post-emergence action against ECHCG in %: 100%
Setaria viridis (SETVI); 20 g/ha
  Post-emergence action against SETVI: 100%
Setaria viridis (SETVI); dosage 1.25 g/ha
  Post-emergence action against SETVI in %: 100%
Setaria viridis (SETVI); dosage 5 g/ha
  Post-emergence action against SETVI in %: 100%
[2]; dosage 1.25 g/ha
  Post-emergence action against MATIN in %: 90%
[2]; dosage 5 g/ha
  Post-emergence action against MATIN in %: 90%
[2]; dosage 20 g/ha
  Post-emergence action against MATIN in %: 100%
[3]; 1.25 g/ha
  Post-emergence action at 1.25 g/ha against ALOMY in %: 100%
[3]; 5 g/ha
  Post-emergence action at 5 g/ha against ALOMY in %: 100%
[3]; 20 g/ha
  Post-emergence action at 20 g/ha against ALOMY in %: 100%
Viola tricolor (VIOTR); 1.25 g/ha
  Post-emergence action against VIOTR: 100%
Viola tricolor (VIOTR); 5 g/ha
  Post-emergence action against VIOTR: 100%
Viola tricolor (VIOTR); 20 g/ha
  Post-emergence action against VIOTR: 100%
Lolium rigidum (LOLRI)
  Post-emergence action against LOLRI in %: 80%
Avena fatua (AVEFA); 5 g/ha
  Post-emergence action at 5 g/ha against AVEFA in %: 80%
Avena fatua (AVEFA); 20 g/ha
  Post-emergence action at 20 g/ha against AVEFA in %: 80%
[4]; dosage 5 g/ha
  Post-emergence action against POLCO in %: 100%
[4]; dosage 20 g/ha
  Post-emergence action against POLCO in %: 100%
[5]; 1.25 g/ha
  Post-emergence action at 1.25 g/ha against ABUTH in %: 100%
[5]; 5 g/ha
  Post-emergence action at 5 g/ha against ABUTH in %: 100%
[5]; 20 g/ha
  Post-emergence action at 20 g/ha against ABUTH in %: 100%
[6]; 1.25 g/ha
  Post-emergence action at 1.25 g/ha against AMARE in %: 100%
[6]; 5 g/ha
  Post-emergence action at 5 g/ha against AMARE in %: 100%
[6]; 20 g/ha
  Post-emergence action at 20 g/ha against AMARE in %: 100%
Veronica persica (VERPE); 1.25 g/ha
  Post-emergence action against VERPE: 80%
Veronica persica (VERPE); 5 g/ha
  Post-emergence action against VERPE: 100%
Veronica persica (VERPE); 20 g/ha
  Post-emergence action against VERPE: 100%
[7]; dosage 1.25 g/ha
  Post-emergence action against PHBPU in %: 100%
[7]; dosage 5 g/ha
  Post-emergence action against PHBPU in %: 100%
[7]; dosage 20 g/ha
  Post-emergence action against PHBPU in %: 100%
Oryza sativa (ORYSA); 1.25 g/ha
  Post-emergence action against ORYSA (crop plant compatibility): 0%
Oryza sativa (ORYSA); 5 g/ha
  Post-emergence action against ORYSA (crop plant compatibility): 20%
[8]; 1.25 g/ha
  Post-emergence action against TRZAS (crop plant compatibility): 0%
[8]; 5 g/ha
  Post-emergence action against TRZAS (crop plant compatibility): 20%

## Cn1c(C(F)(F)F)cc(=O)n(-c2cc(Oc3ccccc3OCC(=O)OCC3CCCO3)c(Cl)cc2F)c1=O (stereo not shown) [I.7-71, Tetrahydrofuran-2-ylmethyl (2-{2-chloro-4-fluoro-5-[3-methyl-2,6-dioxo-4-(trifluoromethyl)-3,6-dihydropyrimidin-1(2H)-yl]phenoxy}phenoxy)acetate]
[1]
  Post-emergence action at 1.25 g/ha against ECHCG in %: 100%
[1]; Echinochloa crus-galli, 504 h, dosage 5 g/ha, read-out: Post-emergence action against ECHCG in %
  pest or weed control at 5 g/ha: 100%
[1]; Echinochloa crus-galli, 504 h, dosage 20 g/ha, read-out: Post-emergence action against ECHCG in %
  pest or weed control at 20 g/ha: 100%
Setaria viridis (SETVI); Setaria viridis, 504 h, 20 g/ha, read-out: Post-emergence action against SETVI
  pest or weed control at 20 g/ha: 100%
Setaria viridis (SETVI); Setaria viridis, 504 h, dosage 1.25 g/ha, read-out: Post-emergence action against SETVI in %
  pest or weed control at 1.25 g/ha: 100%
Setaria viridis (SETVI); Setaria viridis, 504 h, dosage 5 g/ha, read-out: Post-emergence action against SETVI in %
  pest or weed control at 5 g/ha: 100%
[2]; Tripleurospermum inodorum, 504 h, dosage 1.25 g/ha, read-out: Post-emergence action against MATIN in %
  pest or weed control at 1.25 g/ha: 80%
[2]; Tripleurospermum inodorum, 504 h, dosage 20 g/ha, read-out: Post-emergence action against MATIN in %
  pest or weed control at 20 g/ha: 100%
[3]; Alopecurus myosuroides, 504 h, 5 g/ha, read-out: Post-emergence action at 5 g/ha against ALOMY in %
  pest or weed control at 5 g/ha: 80%
[3]; Alopecurus myosuroides, 504 h, 20 g/ha, read-out: Post-emergence action at 20 g/ha against ALOMY in %
  pest or weed control at 20 g/ha: 80%
Viola tricolor (VIOTR); Viola tricolor, 504 h, 1.25 g/ha, read-out: Post-emergence action against VIOTR
  pest or weed control at 1.25 g/ha: 100%
Viola tricolor (VIOTR); Viola tricolor, 504 h, 5 g/ha, read-out: Post-emergence action against VIOTR
  pest or weed control at 5 g/ha: 100%
Viola tricolor (VIOTR); Viola tricolor, 504 h, 20 g/ha, read-out: Post-emergence action against VIOTR
  pest or weed control at 20 g/ha: 100%
Lolium rigidum (LOLRI); Lolium rigidum, 504 h, read-out: Post-emergence action against LOLRI in %
  pest or weed control at 20 g/ha: 80%
Avena fatua (AVEFA); Avena fatua, 504 h, 20 g/ha, read-out: Post-emergence action at 20 g/ha against AVEFA in %
  pest or weed control at 20 g/ha: 90%
[4]; Fallopia convolvulus, 504 h, dosage 5 g/ha, read-out: Post-emergence action against POLCO in %
  pest or weed control at 5 g/ha: 100%
[4]; Fallopia convolvulus, 504 h, dosage 20 g/ha, read-out: Post-emergence action against POLCO in %
  pest or weed control at 20 g/ha: 100%
[5]; Abutilon theophrasti, 504 h, 1.25 g/ha, read-out: Post-emergence action at 1.25 g/ha against ABUTH in %
  pest or weed control at 1.25 g/ha: 100%
[5]; Abutilon theophrasti, 504 h, 5 g/ha, read-out: Post-emergence action at 5 g/ha against ABUTH in %
  pest or weed control at 5 g/ha: 100%
[5]; Abutilon theophrasti, 504 h, 20 g/ha, read-out: Post-emergence action at 20 g/ha against ABUTH in %
  pest or weed control at 20 g/ha: 100%
[6]; Amaranthus retroflexus, 504 h, 1.25 g/ha, read-out: Post-emergence action at 1.25 g/ha against AMARE in %
  pest or weed control at 1.25 g/ha: 100%
[6]; Amaranthus retroflexus, 504 h, 5 g/ha, read-out: Post-emergence action at 5 g/ha against AMARE in %
  pest or weed control at 5 g/ha: 100%
[6]; Amaranthus retroflexus, 504 h, 20 g/ha, read-out: Post-emergence action at 20 g/ha against AMARE in %
  pest or weed control at 20 g/ha: 100%
Veronica persica (VERPE); Veronica persica, 504 h, 1.25 g/ha, read-out: Post-emergence action against VERPE
  pest or weed control at 1.25 g/ha: 100%
Veronica persica (VERPE); Veronica persica, 504 h, 5 g/ha, read-out: Post-emergence action against VERPE
  pest or weed control at 5 g/ha: 100%
Veronica persica (VERPE); Veronica persica, 504 h, 20 g/ha, read-out: Post-emergence action against VERPE
  pest or weed control at 20 g/ha: 100%
[7]; Ipomoea purpurea, 504 h, dosage 1.25 g/ha, read-out: Post-emergence action against PHBPU in %
  pest or weed control at 1.25 g/ha: 100%
[7]; Ipomoea purpurea, 504 h, dosage 5 g/ha, read-out: Post-emergence action against PHBPU in %
  pest or weed control at 5 g/ha: 100%
[7]; Ipomoea purpurea, 504 h, dosage 20 g/ha, read-out: Post-emergence action against PHBPU in %
  pest or weed control at 20 g/ha: 100%
Oryza sativa (ORYSA); 1.25 g/ha
  Post-emergence action against ORYSA (crop plant compatibility): 20%
[8]; 1.25 g/ha
  Post-emergence action against TRZAS (crop plant compatibility): 0%
